Experiment: Maximum solubility of active ingredient in oils
Format: physicochemical
Conditions: room temperature, atmospheric pressure
Description: The maximum solubility of the active ingredients in the oil phase can be measured in any way which is known in the art. For example, an excess amount of the active ingredient is dissolved in the oil and mixed vigorously at elevated temperature, and then this sample is cooled down to room temperature and maintained for several hours to days. This mixture is centrifuged to separate an oil phase and the concentration of the active ingredient in the separated oil phase is measured using UV spectroscopy.
In the representative examples of the active ingredients of the present invention, the maximum solubilities of phenylethyl resorcinol and 4-(tetrahydro-2H-pyran-4-yl) benzene-1,3-diol in various oils measured at room temperature and under atmospheric pressure are shown below.

maximum solubility in oil (Isododecane): 0.043%
maximum solubility in oil (Isopropyl Lauroyl Sarcosinate): 42%
maximum solubility in oil (Isopropyl Myristate): 36%
maximum solubility in oil (Sesamum Indicum (Sesame) Seed Oil): 23%
Compound: CC(c1ccccc1)c1ccc(O)cc1O (stereo not shown) [Phenylethyl Resorcinol]
